Reference: PubChem BioAssay (NCI)
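Dose response: 5 concentrations. Exposure: 48 h. Format: 96-well plates. Endpoint: linear interpolation; highest concentration if not reached. GI50 is the concentration that inhibits growth by half. TGI: total growth inhibition.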

Columns and labels:
Assay in all cases: DTP human tumour cell line panel, 48 h
EKVX NSCLC = system: EKVX NSCLC
PC-3 prostate = system: PC-3 prostate
MOLT-4 leukemia = system: MOLT-4 leukemia
SK-MEL-28 melanoma = system: SK-MEL-28 melanoma
RXF 393 renal = system: RXF 393 renal
SNB-75 CNS = system: SNB-75 CNS
RPMI-8226 leukemia = system: RPMI-8226 leukemia
MCF7 breast = system: MCF7 breast
IGROV1 ovarian = system: IGROV1 ovarian
MDA-MB-435 = system: MDA-MB-435
SF-539 CNS = system: SF-539 CNS
K-562 leukemia = system: K-562 leukemia
SF-295 CNS = system: SF-295 CNS
BT-549 breast = system: BT-549 breast
CAKI-1 renal = system: CAKI-1 renal
UACC-257 melanoma = system: UACC-257 melanoma
HL-60(TB) leukemia = system: HL-60(TB) leukemia
UO-31 renal = system: UO-31 renal
786-0 renal = system: 786-0 renal
OVCAR-3 ovarian = system: OVCAR-3 ovarian
HOP-62 NSCLC = system: HOP-62 NSCLC
HOP-92 NSCLC = system: HOP-92 NSCLC
UACC-62 melanoma = system: UACC-62 melanoma
ACHN renal = system: ACHN renal
SK-OV-3 ovarian = system: SK-OV-3 ovarian
SK-MEL-2 melanoma = system: SK-MEL-2 melanoma
SR leukemia = system: SR leukemia
NCI/ADR-RES ovarian = system: NCI/ADR-RES ovarian
HS 578T breast = system: HS 578T breast
MDA-MB-231 breast = system: MDA-MB-231 breast
SF-268 CNS = system: SF-268 CNS
HCT-15 colon = system: HCT-15 colon
DU-145 prostate = system: DU-145 prostate
SNB-19 CNS = system: SNB-19 CNS
HCC-2998 colon = system: HCC-2998 colon
NCI-H460 lung = system: NCI-H460 lung
NCI-H226 lung = system: NCI-H226 lung
SW-620 colon = system: SW-620 colon
OVCAR-8 ovarian = system: OVCAR-8 ovarian
OVCAR-5 ovarian = system: OVCAR-5 ovarian
LOX IMVI melanoma = system: LOX IMVI melanoma
TK-10 renal = system: TK-10 renal
CCRF-CEM leukemia = system: CCRF-CEM leukemia
KM12 colon = system: KM12 colon
SN12C renal = system: SN12C renal
SK-MEL-5 melanoma = system: SK-MEL-5 melanoma
T-47D breast = system: T-47D breast
A498 renal = system: A498 renal
NCI-H522 lung = system: NCI-H522 lung
U251 CNS = system: U251 CNS
M14 melanoma = system: M14 melanoma
NCI-H23 lung = system: NCI-H23 lung
MALME-3M melanoma = system: MALME-3M melanoma
COLO 205 colon = system: COLO 205 colon
OVCAR-4 ovarian = system: OVCAR-4 ovarian

Clc1ccc2oc3c(NCCCN4CCOCC4)c4ccccc4nc3c2c1
GI50 (EKVX NSCLC): 2.89 µM
TGI (EKVX NSCLC): 10.1 µM
GI50 (PC-3 prostate): 1.78 µM
TGI (PC-3 prostate): 3.99 µM
GI50 (MOLT-4 leukemia): 0.534 µM
TGI (MOLT-4 leukemia): 12.7 µM
GI50 (SK-MEL-28 melanoma): 1.72 µM
TGI (SK-MEL-28 melanoma): 3.16 µM
GI50 (RXF 393 renal): 1.41 µM
TGI (RXF 393 renal): 2.8 µM
GI50 (SNB-75 CNS): 1.77 µM
TGI (SNB-75 CNS): 5.88 µM
GI50 (RPMI-8226 leukemia): 2.12 µM
TGI (RPMI-8226 leukemia): 5.05 µM
GI50 (MCF7 breast): 1.17 µM
TGI (MCF7 breast): 3.16 µM
GI50 (IGROV1 ovarian): 2.79 µM
TGI (IGROV1 ovarian): 22.2 µM
GI50 (MDA-MB-435): 1.66 µM
TGI (MDA-MB-435): 3.35 µM
GI50 (SF-539 CNS): 1.56 µM
TGI (SF-539 CNS): 2.92 µM
GI50 (K-562 leukemia): 1.56 µM
TGI (K-562 leukemia): 10.2 µM
GI50 (SF-295 CNS): 2.76 µM
TGI (SF-295 CNS): 11.3 µM
GI50 (BT-549 breast): 2.37 µM
TGI (BT-549 breast): 5.51 µM
GI50 (CAKI-1 renal): 1.4 µM
TGI (CAKI-1 renal): 3.21 µM
GI50 (UACC-257 melanoma): 1.78 µM
TGI (UACC-257 melanoma): 3.5 µM
GI50 (HL-60(TB) leukemia): 0.295 µM
TGI (HL-60(TB) leukemia): 1.21 µM
GI50 (UO-31 renal): 1.34 µM
TGI (UO-31 renal): 3.68 µM
GI50 (786-0 renal): 1.61 µM
TGI (786-0 renal): 4.45 µM
GI50 (OVCAR-3 ovarian): 3.29 µM
TGI (OVCAR-3 ovarian): 34.7 µM
GI50 (HOP-62 NSCLC): 1.72 µM
TGI (HOP-62 NSCLC): 4.65 µM
GI50 (HOP-92 NSCLC): 1.32 µM
TGI (HOP-92 NSCLC): 5.64 µM
GI50 (UACC-62 melanoma): 2.17 µM
TGI (UACC-62 melanoma): 5.07 µM
GI50 (ACHN renal): 0.88 µM
TGI (ACHN renal): 2.59 µM
GI50 (SK-OV-3 ovarian): 3.23 µM
TGI (SK-OV-3 ovarian): 17.1 µM
GI50 (SK-MEL-2 melanoma): 3 µM
TGI (SK-MEL-2 melanoma): 8.79 µM
GI50 (SR leukemia): 1.69 µM
TGI (SR leukemia): 8.9 µM
GI50 (NCI/ADR-RES ovarian): 1.01 µM
TGI (NCI/ADR-RES ovarian): 5.55 µM
GI50 (HS 578T breast): 3.43 µM
TGI (HS 578T breast): 22.6 µM
GI50 (MDA-MB-231 breast): 2.27 µM
TGI (MDA-MB-231 breast): 8.43 µM
GI50 (SF-268 CNS): 2.32 µM
TGI (SF-268 CNS): > 100 µM
GI50 (HCT-15 colon): 1.53 µM
TGI (HCT-15 colon): 5.33 µM
GI50 (DU-145 prostate): 2.76 µM
TGI (DU-145 prostate): 11.5 µM
GI50 (SNB-19 CNS): 3.48 µM
TGI (SNB-19 CNS): 20 µM
GI50 (HCC-2998 colon): 1.36 µM
TGI (HCC-2998 colon): 3.11 µM
GI50 (NCI-H460 lung): 1.18 µM
TGI (NCI-H460 lung): 3.38 µM
GI50 (NCI-H226 lung): 2.2 µM
TGI (NCI-H226 lung): 6.2 µM
GI50 (SW-620 colon): 0.839 µM
TGI (SW-620 colon): 3.21 µM
GI50 (OVCAR-8 ovarian): 1.82 µM
TGI (OVCAR-8 ovarian): 5.1 µM
GI50 (OVCAR-5 ovarian): 1.83 µM
TGI (OVCAR-5 ovarian): 5.28 µM
GI50 (LOX IMVI melanoma): 1.27 µM
TGI (LOX IMVI melanoma): 2.77 µM
GI50 (TK-10 renal): 4.61 µM
TGI (TK-10 renal): 20.7 µM
GI50 (CCRF-CEM leukemia): 0.117 µM
TGI (CCRF-CEM leukemia): 5.48 µM
GI50 (KM12 colon): 2.49 µM
TGI (KM12 colon): > 100 µM
GI50 (SN12C renal): 1.6 µM
TGI (SN12C renal): 6.36 µM
GI50 (SK-MEL-5 melanoma): 4.15 µM
TGI (SK-MEL-5 melanoma): 15.7 µM
GI50 (T-47D breast): 3.06 µM
TGI (T-47D breast): 18.9 µM
GI50 (A498 renal): 4.06 µM
TGI (A498 renal): 17 µM

Clc1ccc2c(N/N=C/c3c[nH]c4ccccc34)ccnc2c1
GI50 (PC-3 prostate): 1.55 µM
TGI (PC-3 prostate): 2.95 µM
GI50 (MOLT-4 leukemia): 1.05 µM
TGI (MOLT-4 leukemia): 3.83 µM
GI50 (SK-MEL-28 melanoma): 1.81 µM
TGI (SK-MEL-28 melanoma): 3.23 µM
GI50 (NCI-H522 lung): 1.77 µM
TGI (NCI-H522 lung): 3.32 µM
GI50 (RXF 393 renal): 1.47 µM
TGI (RXF 393 renal): 2.83 µM
GI50 (SNB-75 CNS): 1.38 µM
TGI (SNB-75 CNS): 2.72 µM
GI50 (U251 CNS): 0.837 µM
TGI (U251 CNS): 2.11 µM
GI50 (MDA-MB-435): 1.75 µM
TGI (MDA-MB-435): 3.18 µM
GI50 (SF-539 CNS): 1.72 µM
TGI (SF-539 CNS): 3.12 µM
GI50 (SF-295 CNS): 1.82 µM
TGI (SF-295 CNS): 3.25 µM
GI50 (M14 melanoma): 1.73 µM
TGI (M14 melanoma): 3.18 µM
GI50 (BT-549 breast): 1.55 µM
TGI (BT-549 breast): 2.91 µM
GI50 (NCI-H23 lung): 1.62 µM
TGI (NCI-H23 lung): 3.17 µM
GI50 (CAKI-1 renal): 1.68 µM
TGI (CAKI-1 renal): 3.1 µM
GI50 (UACC-257 melanoma): 1.65 µM
TGI (UACC-257 melanoma): 3.04 µM
GI50 (UO-31 renal): 1.32 µM
TGI (UO-31 renal): 2.66 µM
GI50 (MALME-3M melanoma): 1.76 µM
TGI (MALME-3M melanoma): 3.27 µM
GI50 (786-0 renal): 1.41 µM
TGI (786-0 renal): 2.77 µM
GI50 (HOP-62 NSCLC): 1.67 µM
TGI (HOP-62 NSCLC): 3.25 µM
GI50 (HOP-92 NSCLC): 0.539 µM
TGI (HOP-92 NSCLC): 2.02 µM
GI50 (ACHN renal): 1.87 µM
TGI (ACHN renal): 3.27 µM
GI50 (SK-OV-3 ovarian): 1.67 µM
TGI (SK-OV-3 ovarian): 3.13 µM
GI50 (SK-MEL-2 melanoma): 1.83 µM
TGI (SK-MEL-2 melanoma): 3.35 µM
GI50 (NCI/ADR-RES ovarian): 1.93 µM
TGI (NCI/ADR-RES ovarian): 4.45 µM
GI50 (MDA-MB-231 breast): 1.65 µM
TGI (MDA-MB-231 breast): 3.17 µM
GI50 (HCT-15 colon): 0.373 µM
TGI (HCT-15 colon): 1.49 µM
GI50 (DU-145 prostate): 1.53 µM
TGI (DU-145 prostate): 2.93 µM
GI50 (NCI-H226 lung): 1.88 µM
TGI (NCI-H226 lung): 4.54 µM
GI50 (SW-620 colon): 0.793 µM
TGI (SW-620 colon): 2.2 µM
GI50 (OVCAR-5 ovarian): 1.63 µM
TGI (OVCAR-5 ovarian): 3.04 µM
GI50 (TK-10 renal): 2.09 µM
TGI (TK-10 renal): 3.57 µM
GI50 (KM12 colon): 1.79 µM
TGI (KM12 colon): 3.33 µM
GI50 (SK-MEL-5 melanoma): 1.75 µM
TGI (SK-MEL-5 melanoma): 3.14 µM
GI50 (COLO 205 colon): 1.79 µM
TGI (COLO 205 colon): 3.42 µM
GI50 (OVCAR-4 ovarian): 1.83 µM
TGI (OVCAR-4 ovarian): 3.63 µM
GI50 (A498 renal): 1.51 µM
TGI (A498 renal): 2.87 µM
